# Source: US8273775B2, “Non-steroidal brassinosteroid mimetic” (priority 2006, dated 2012)
# What was measured:
# [1] = tested on: group II GSK-3 kinases (ASKs) including BIN2; test: ASK kinase assay with MBP as substrate, group II; type: biochemical, Arabidopsis; details: 10 μM abrasin
# Experimental: (§1) Coomassie staining was used as a loading control. b, Autoradiography of kinase assays with nine ASKs with MBP as a substrate in the presence or absence of 10 μM abrasin. The second member of group IV, ASKκ, had no kinase activity and was not included in the analysis. c, Autoradiography of kinase assays with AtMPK4, AtMPK6 and MBP as a substrate (left) and with AtAUR1 kinase and histone H3 as a substrate (right) in the presence or absence of 10 μM abrasin.
# (§2) For in vitro kinase assays, MBP, MBP-BES1, and MBP-bes1 (20 ng each) were incubated with GST-BIN2 or GST-BRI1 kinase (200 ng each) in 20 μl of kinase buffer (20 mM Tris [pH 7.5], 100 mM NaCl, and 12 mM MgCl2) and 10 μCi ^32P-γATP. After incubation at 37° C. for 40 min, the reactions were stopped by adding 20 μl of 2×SDS buffer and boiling at 94° C. for 5 min. Proteins were resolved by a PAGE gel and phosphorylation was detected by exposing the dried gel to X-ray film. […]
# (§3) Besides BIN2, nine additional GSK-3 kinases (also designated ASKs for Arabidopsis SHAGGY-related kinases) divided into four subgroups (I-IV) have been identified in Arabidopsis (Jonak and Hirt, 2002; Yoo et al. 2006). To determine the specificity of abrasin, its effect on the kinase activity of all ASKs was analyzed with myelin basic protein (MBP) as a general substrate. […]
# [2] = tested on: BR-biosynthetic, BR signaling and BR-induced genes; test: Real time PCR of BR pathway genes; type: in vivo, Arabidopsis thaliana
# Experimental: FIG. 7: Q-PCR analysis of genes involved in BR biosynthesis. WT Arabidopsis plants were treated with abrasin (indicated as I5) for 2 hours at a concentration of 30 μM and/or with CHX at a concentration of 30 μM and RNA was extracted from whole plants.
# FIG. 8: A: Western Blot analysis of the BES1 protein in 35S:BES1:GFP plants treated with BL and abrasin (indicated as I5 throughout the figure) (A); MG132 with BL or abrasin (B); a time course with abrasin (C) and a concentration gradient with abrasin (D). B: Abrasin and BL induce similar transcriptional regulation of the BR pathway.
# RNA was extracted with the RNeasy kit. Poly(dT) cDNA was prepared from […] of total RNA with Superscript III reverse transcriptase (Invitrogen) and quantified on an LightCycler 480 apparatus (Roche) with the SYBR Green I Master kit (Roche) according to the manufacturer's instructions. Target quantifications were performed with specific primer pairs designed with the Beacon Designer 4.0 (Premier Biosoft International). All PCRs were performed in triplicate.
# The primers used to quantify gene expression levels were for BAS 1: 5′-[…]-3′ and 5′-[…]-3′; BR6Ox1: 5′-TGGCCAATCTTTGGCGAA-3′ and 5′-[…]-3′; BR6Ox2: 5′-[…]-3′ and 5′-[…]-3′; BRI1: 5′-[…]-3′ and 5′-[…]-3′; CPD: 5′-[…]-3′ and 5′-[…]-3′; DWF4: 5′-[…]-3′ and 5′-[…]-3′ ROT3: 5′-ATTGGCGCGTTCCTCAGAT-3′ and 5′-[…]-3′; BES1: 5′-[…]-3′ and 5′-[…]-3′; BIN2: 5′-[…]-3′ and 5′-[…]-3′; BSU 1: 5′-[…]-3′ and 5′-[…]-3′; BZR1: 5′-[…]-3′ and 5′-[…]-3′; CDKA1; 1: 5′-[…]-3′ and 5′-[…]-3′; EEF1α: 5′-[…]-3′ and 5′-[…]-3′; BKI1: 5′-GCTCCGGCGTCGATGA-3′ and 5′-[…]-3′.
# AtMPK4 = molecular target: T1, AtMPK4 (Arabidopsis thaliana, UniProt Q39024); test: Kinase assay with AtMPK4 and MBP as substrate; type: biochemical; details: 10 μM abrasin
# T1 sequence (Q39024 1-376): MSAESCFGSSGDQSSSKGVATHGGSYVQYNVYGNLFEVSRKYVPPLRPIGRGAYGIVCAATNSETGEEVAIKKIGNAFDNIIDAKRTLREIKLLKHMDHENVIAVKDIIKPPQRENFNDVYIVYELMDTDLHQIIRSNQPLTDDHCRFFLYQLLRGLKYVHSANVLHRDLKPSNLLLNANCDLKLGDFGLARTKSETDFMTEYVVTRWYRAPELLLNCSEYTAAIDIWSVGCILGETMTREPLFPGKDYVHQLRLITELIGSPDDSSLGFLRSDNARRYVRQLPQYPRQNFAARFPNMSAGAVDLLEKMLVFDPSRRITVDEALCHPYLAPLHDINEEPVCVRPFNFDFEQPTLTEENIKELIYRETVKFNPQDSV
# Experimental: as §1, §2, §3
# [3] = tested on: group I GSK-3 kinases (ASKs); test: ASK kinase assay with MBP as substrate, group I; type: biochemical, Arabidopsis; details: 10 μM abrasin
# Experimental: as §1, §2, §3
compound,measurement,setting,value
"O=C(O)CCC(=O)Nc1ccc(Br)cn1 [abrasin, 4-[(5-bromo-2-pyridinyl)amino]-4-oxobutanoic acid]",residual activity,[1],1-2
same,expression of genes downstream of the BRI1 receptor,"[2]; 30 μM, 2 hours",all genes are upregulated
same,expression of genes involved in biosynthesis and perception,"[2]; 30 μM, 2 hours",regulated in the same way as a BL-treatment
same,"RNA levels of BR biosynthetic, signaling and BR-induced genes","[2]; 3-day-old seedlings, Abrasin 30 μM, 6 hours, compared to BL 1 μM",the expression profiles resembled closely those of BL treatment
same,effect on kinase activity,AtMPK4,no effect
same,residual activity,[3],6-8%
